Assay [1] relates to relaxin-stimulated cAMP via RXFP1. The format is cell-based.
Assay [2] has as its system basal cAMP in cells expressing RXFP1. It counts as cell-based.
In assay [3] the target is T1, RXFP1 (Rattus norvegicus, UniProt Q6R6I6).
T1 sequence (Q6R6I6 1-758): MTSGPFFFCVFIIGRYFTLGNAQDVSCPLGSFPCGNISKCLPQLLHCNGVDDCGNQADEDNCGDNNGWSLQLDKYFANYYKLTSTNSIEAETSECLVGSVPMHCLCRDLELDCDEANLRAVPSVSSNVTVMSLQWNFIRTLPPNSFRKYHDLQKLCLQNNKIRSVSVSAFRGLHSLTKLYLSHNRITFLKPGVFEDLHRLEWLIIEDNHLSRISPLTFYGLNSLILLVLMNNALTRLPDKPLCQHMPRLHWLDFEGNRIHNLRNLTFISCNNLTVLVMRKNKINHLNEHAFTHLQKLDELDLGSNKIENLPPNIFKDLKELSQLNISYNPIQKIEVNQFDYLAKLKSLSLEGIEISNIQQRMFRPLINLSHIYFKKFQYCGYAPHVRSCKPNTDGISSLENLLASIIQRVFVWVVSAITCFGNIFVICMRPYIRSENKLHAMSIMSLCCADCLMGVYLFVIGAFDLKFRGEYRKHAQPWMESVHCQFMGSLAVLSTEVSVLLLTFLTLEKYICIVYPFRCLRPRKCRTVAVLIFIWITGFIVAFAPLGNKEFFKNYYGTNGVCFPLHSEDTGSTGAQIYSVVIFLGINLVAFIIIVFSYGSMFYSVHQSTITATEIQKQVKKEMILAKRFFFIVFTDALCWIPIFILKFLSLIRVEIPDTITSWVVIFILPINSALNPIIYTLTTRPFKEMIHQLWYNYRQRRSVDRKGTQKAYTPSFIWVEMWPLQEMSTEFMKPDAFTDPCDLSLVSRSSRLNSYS
Briefly: Single-cell FRET cAMP. To be noted: rat cardiac fibroblasts, PTX pre-treatment.

The target in assay [4] is T2, RXFP1 (Homo sapiens, UniProt Q9HBX9).
T2 sequence (Q9HBX9 1-757): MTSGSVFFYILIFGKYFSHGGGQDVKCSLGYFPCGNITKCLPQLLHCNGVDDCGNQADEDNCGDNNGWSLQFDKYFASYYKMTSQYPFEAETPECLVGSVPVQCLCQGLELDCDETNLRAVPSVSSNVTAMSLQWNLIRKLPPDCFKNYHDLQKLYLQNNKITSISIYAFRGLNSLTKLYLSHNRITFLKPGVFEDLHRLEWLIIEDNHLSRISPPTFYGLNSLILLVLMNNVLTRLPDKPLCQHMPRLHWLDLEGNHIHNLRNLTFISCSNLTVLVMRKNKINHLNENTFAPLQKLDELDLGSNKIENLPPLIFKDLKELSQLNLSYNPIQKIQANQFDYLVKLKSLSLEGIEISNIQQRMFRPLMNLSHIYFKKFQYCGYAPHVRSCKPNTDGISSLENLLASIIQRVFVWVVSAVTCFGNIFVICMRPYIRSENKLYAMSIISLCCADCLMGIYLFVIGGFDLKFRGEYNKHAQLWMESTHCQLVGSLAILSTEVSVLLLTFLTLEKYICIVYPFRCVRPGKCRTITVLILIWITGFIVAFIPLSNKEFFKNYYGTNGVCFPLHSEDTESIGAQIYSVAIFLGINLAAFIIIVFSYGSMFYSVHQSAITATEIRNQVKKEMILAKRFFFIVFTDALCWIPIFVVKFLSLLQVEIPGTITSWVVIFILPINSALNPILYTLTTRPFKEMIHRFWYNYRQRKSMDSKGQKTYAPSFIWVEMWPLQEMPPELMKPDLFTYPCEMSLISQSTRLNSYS
Briefly: Single-cell FRET cAMP. To be noted: HeLa, PTX 100 ng/ml, 16 h, forskolin 1 μM.

Assay [5] addresses T3, RXFP2 (Homo sapiens, UniProt Q8WXD0). The experiment in a line: Single-cell FRET cAMP.
Assay [6] concerns the target T3, RXFP2. The experiment in a line: Single-cell FRET cAMP. The source holds these as a separate data set.
Assay [7] relates to RXFP2/1. The experiment in a line: Single-cell FRET cAMP.
Assay [8] has as its system basal cAMP in cells expressing RXFP2 or pcDNA. Briefly: Effect of PDE inhibition on basal cAMP, HEK293 expressing RXFP2 or pcDNA. The conditions noted are these: IBMX 100 μM, 30 min; RXFP1 versus RXFP2 or pcDNA. It counts as cell-based.

Read-outs that look alike come from different tables or passages of the source. Positions of bridges follow the written chain, without caps; N, C: chain ends. Chains are numbered I, II in the order given. No end group written: not given here.

T3 sequence (Q8WXD0 whole entry, species assumed): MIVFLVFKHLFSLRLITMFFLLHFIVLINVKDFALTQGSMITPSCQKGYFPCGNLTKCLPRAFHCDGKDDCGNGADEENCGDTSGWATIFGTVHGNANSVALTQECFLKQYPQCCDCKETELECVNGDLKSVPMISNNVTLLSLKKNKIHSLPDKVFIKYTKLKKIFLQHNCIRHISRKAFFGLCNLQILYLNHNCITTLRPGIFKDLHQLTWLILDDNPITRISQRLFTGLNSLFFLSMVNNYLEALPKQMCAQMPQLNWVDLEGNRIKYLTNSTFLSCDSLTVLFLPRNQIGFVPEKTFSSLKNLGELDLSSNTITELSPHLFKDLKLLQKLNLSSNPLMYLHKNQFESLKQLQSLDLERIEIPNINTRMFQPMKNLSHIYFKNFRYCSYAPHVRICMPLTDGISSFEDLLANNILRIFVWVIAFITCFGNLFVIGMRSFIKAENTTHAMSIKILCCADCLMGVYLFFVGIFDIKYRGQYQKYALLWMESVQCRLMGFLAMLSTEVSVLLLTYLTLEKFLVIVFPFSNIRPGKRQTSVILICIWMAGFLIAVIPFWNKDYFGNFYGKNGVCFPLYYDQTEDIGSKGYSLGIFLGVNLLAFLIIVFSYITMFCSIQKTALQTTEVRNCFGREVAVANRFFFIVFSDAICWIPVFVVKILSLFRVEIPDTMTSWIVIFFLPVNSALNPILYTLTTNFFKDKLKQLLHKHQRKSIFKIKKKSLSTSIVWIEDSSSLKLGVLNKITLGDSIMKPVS

On to `CCCCOc1cc(CC2CNC(=O)N2)ccc1OC` (centres unmarked) [Ro 20-1724], for which, in assay [1], the “effect on cAMP response to sub-picomolar (10 fM) relaxin” value (“effect on cAMP response” for short) is “no further increase following stimulation with 10 fM relaxin”. Further, the “effect on basal cAMP” value in assay [2] was “significantly increased basal cAMP”.
In the case of PTX, in assay [1], the “effect on cAMP response” value is “did not affect the cAMP response to sub-picomolar concentrations of relaxin” and the “effect on maximal / classical cAMP response to relaxin” value was “the maximal cAMP response to relaxin was enhanced”. Besides, the “effect on shape of relaxin concentration–response curve” value in assay [3] is “revealed a biphasic, stimulatory concentration–response curve”. Also, the “effect on shape of relaxin concentration–response curve” value in assay [4] is recorded as “revealed the biphasic concentration–response curve”.
With `C[C@H]1O[C@@H](n2cnc3c(N)ncnc32)C[C@@H]1OP(=O)(OCCSC(=O)C(C)(C)C)OCCSC(=O)C(C)(C)C` [ddAB, 2′,5′-dd-3′-AMP-bis(tBuSATE)], the “effect on cAMP response” value in assay [1] is listed as “completely abolished the response to 10 fM relaxin”.
On to `CN(C(=O)CCCOc1ccc2[nH]c(=O)ccc2c1)C1CCCCC1` [cilostamide], for which the “effect on cAMP response” value in assay [1] is listed as “remained responsive to stimulation with 10 fM relaxin”. In addition, the “effect on basal cAMP” value in assay [2] is “no significant effect”.
For `O=S(=O)(NCCNC/C=C/c1ccc(Br)cc1)c1cccc2cnccc12` [H89] the same measures were “no further increase in cAMP” and “basal cAMP levels were significantly increased”.
For `O=C1OC2(c3ccccc31)c1ccc(O)c(O)c1Oc1c2ccc(O)c1O` [gallein], in assay [1], the “effect on cAMP response” value was “completely abolished the cAMP accumulation stimulated by 10 fM relaxin”.
As to “I: PTPEMREKLCGHHFVRALVRVCGGPRWSTEA / II: AAATNPARYCCLSGCTQQDLLTLCPY (disulfide I:10-II:11, I:22-II:24, II:10-II:15) [INSL3]”, the EC50 (usually the midpoint of the concentration-response curve) in assay [5] turned out to be 7.74 ± 1.67 nM; in assay [6] it was 1.42 ± 0.92 nM; in assay [7] (read-out: INSL3 EC50, pmEpac2, RXFP2/1, mean±s.e.m.), 0.26 ± 0.04 nM. Also, the “cellular response to sub-picomolar peptide” value in assay [6] (RXFP2, pmEpac2) is “no evidence of a cellular response”. In assay [7] (RXFP2/1, pmEpac2), the “cAMP accumulation at sub-picomolar concentrations” value is recorded as “not the closely related peptide INSL3, increased cAMP accumulation at sub-picomolar concentrations”.
Take `CC(C)Cn1c(=O)n(C)c(=O)c2[nH]cnc21` [IBMX, 3-isobutyl-1-methylxanthine]: in assay [1], the “effect on biphasic relaxin concentration–response curve” value is on record as “abolished the biphasic concentration–response curve” and the “effect on cAMP response” value was “no further increase following stimulation with 10 fM relaxin”. Further, in assay [2], the “effect on basal cAMP” value is “significantly increased basal cAMP”. In addition, the “effect on basal cAMP, RXFP1-dependence” value in assay [8] is on record as “significantly increased basal cAMP only in cells expressing RXFP1”.
Turning to `CCCCCCOC(=O)[C@]1(O)C[C@@H]2O[C@@]1(C)n1c3ccccc3c3c4c(c5c6ccccc6n2c5c31)C(=O)NC4` [KT5720], the “effect on cAMP response” value in assay [1] was “no further increase in cAMP”. In addition, the “effect on basal cAMP” value in assay [2] is recorded as “basal cAMP levels were significantly increased”.
With cholera toxin, the “effect on cAMP response” value in assay [1] is “response to 10 fM relaxin reaching the maximal relaxin response”. In addition, the “effect on basal cAMP” value in assay [2] is recorded as “potentiated basal”.
For the compound `O=C(Nc1cc(C(=O)Nc2ccc(S(=O)(=O)O)cc2S(=O)(=O)O)cc(C(=O)Nc2ccc(S(=O)(=O)O)cc2S(=O)(=O)O)c1)Nc1cc(C(=O)Nc2ccc(S(=O)(=O)O)cc2S(=O)(=O)O)cc(C(=O)Nc2ccc(S(=O)(=O)O)cc2S(=O)(=O)O)c1` [NF449], the “effect on cAMP response” value in assay [1] is “significantly inhibited the 10 fM relaxin response”.

For the origin of these results see paper PMC2924647 (The EMBO Journal, 2010).
